From patent US20100222396A1 (Novartis AG, priority 2009, published 2010) come the findings set out here.

pKd: −log10 of the molar value.

For experiment [1], the target named is T1, human orexin 1 receptor (hOx1R) (Homo sapiens, UniProt O43613).
T1 construct: expressed in transfected cells
T1 sequence (O43613 1-425): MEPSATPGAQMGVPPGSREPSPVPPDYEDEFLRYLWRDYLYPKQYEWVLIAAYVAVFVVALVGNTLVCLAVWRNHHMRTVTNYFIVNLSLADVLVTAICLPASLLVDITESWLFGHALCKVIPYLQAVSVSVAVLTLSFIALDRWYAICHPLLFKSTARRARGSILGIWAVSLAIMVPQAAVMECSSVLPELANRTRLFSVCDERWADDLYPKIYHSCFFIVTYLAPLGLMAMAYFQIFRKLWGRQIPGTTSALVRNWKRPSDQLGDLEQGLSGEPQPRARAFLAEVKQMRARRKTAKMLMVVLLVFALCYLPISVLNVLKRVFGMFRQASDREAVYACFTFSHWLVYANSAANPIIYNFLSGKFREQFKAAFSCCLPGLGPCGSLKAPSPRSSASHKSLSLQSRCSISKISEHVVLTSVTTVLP
Put plainly: Calcium accumulation in cells (FLIPR), antagonism of orexin A, hOx1R. To be noted: for pKd: cells expressing human orexin 1 receptor, IC50 vs orexin A converted by Cheng and Prusoff correction; for inhibition at 10 µM: measured at a concentration of 10 μM of compound (cells marked ^a). The format is cell-based. The method in brief: (§1)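 Serum-starved receptor-expressing cells were loaded with Fluo-4-AM (2 μM) plus probenecid (0.1 mM) in HEPES buffer, pH 7.4, with 1% BSA, and Ca2+ fluorescence was read on FLIPR. Compounds (10^−9–10^−5 M) were added first, and orexin A was added one hour later to measure antagonism.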

The target in experiment [2] is T2, human orexin 2 receptor (hOx2R) (Homo sapiens, UniProt O43614).
T2 construct: expressed in transfected cells
T2 sequence (O43614 1-444): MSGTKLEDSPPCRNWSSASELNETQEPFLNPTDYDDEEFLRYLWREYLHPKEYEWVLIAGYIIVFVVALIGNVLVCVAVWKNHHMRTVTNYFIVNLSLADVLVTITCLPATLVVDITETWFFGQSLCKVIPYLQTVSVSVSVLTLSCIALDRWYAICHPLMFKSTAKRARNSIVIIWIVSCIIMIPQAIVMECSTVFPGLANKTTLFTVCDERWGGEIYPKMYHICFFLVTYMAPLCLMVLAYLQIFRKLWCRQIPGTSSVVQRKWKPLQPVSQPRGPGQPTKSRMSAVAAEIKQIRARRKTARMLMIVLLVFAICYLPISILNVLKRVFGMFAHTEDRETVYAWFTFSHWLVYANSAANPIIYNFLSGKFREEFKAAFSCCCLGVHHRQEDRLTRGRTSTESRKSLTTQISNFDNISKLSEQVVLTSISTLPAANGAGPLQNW
Put plainly: Calcium accumulation in cells (FLIPR), antagonism of orexin A, hOx2R. In kind it is cell-based. To be noted: for pKd: cells expressing human orexin 2 receptor, IC50 vs orexin A converted by Cheng and Prusoff correction; for inhibition at 10 µM: measured at a concentration of 10 μM of compound (cells marked ^a). In outline:
as §1

In experiment [3] the target is T1, human orexin 1 receptor (hOx1R). Briefly: Radioligand binding assay ([125I]orexin A competition), hOx1R. Particulars: CHO or HEK cell membranes, 1 h room temperature. The method in brief:
(§2)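 Membranes from CHO or HEK cells expressing the human receptor, incubated 1 h at room temperature with […] [125I]orexin A and compound in HEPES pH 7.5 buffer with BSA, MgCl2, CaCl2 and tween.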

Experiment [4] has as its target T2, human orexin 2 receptor (hOx2R). Put plainly: Radioligand binding assay ([125I]orexin A competition), hOx2R. To be noted: CHO or HEK cell membranes, 1 h room temperature. The method in brief: as §2

What is called pKd is −log10 of the Kd, conventionally taken in molar units. What is called inhibition is how much of the control response was suppressed.

As to `CN(C(=O)c1ccc2cc[nH]c2c1)[C@H](CCNC(=O)c1ccccn1)Cc1ccccc1` [Example 64, 1H-Indole-6-carboxylic acid {(S)-1-benzyl-3-[(pyridine-2-carbonyl)-amino]-propyl}-methyl-amide], the pKd in experiment [1] is 6.00; in experiment [2], 5.97; in experiment [3], 6.27; in experiment [4], 5.16.
Turning to `CN(C(=O)c1cccc2c1OCO2)[C@H](CCNC(=O)c1ccccn1)Cc1ccc(Cl)cc1` [Example 65, Pyridine-2-carboxylic acid [(S)-3-[(benzo[1,3]dioxole-4-carbonyl)-methyl-amino]-4-(4-chloro-phenyl)-butyl]-amide], the inhibition at 10 µM in experiment [1] was determined as 3%; in experiment [2], 41%. Also, the figures for the negative-log Kd (pKd) in experiment [3] and in experiment [4] were below 5.00 and 5.16, respectively.
On the same counts, the results for `CN(C(=O)c1ccccc1)[C@H](CCNC(=O)c1ccccn1)Cc1ccc(F)cc1` [Example 66, Pyridine-2-carboxylic acid [(S)-3-(benzoyl-methyl-amino)-4-(4-fluoro-phenyl)-butyl]-amide] are 0%, 33%, below 5.00 and 5.15.
As to `CN(C(=O)c1ccccc1)[C@H](CCNC(=O)c1cccc2c1OCC2)Cc1ccccc1` [Example 67, 2,3-Dihydro-benzofuran-7-carboxylic acid [(S)-3-(benzoyl-methyl-amino)-4-phenyl-butyl]-amide], in experiment [1], the inhibition at 10 µM was 33%. Moreover, the pKd in experiment [2] is 6.74; in experiment [3], 5.96; in experiment [4], 6.94.
Take `CN(C(=O)c1ccccc1)[C@@H](CCNC(=O)c1ccccn1)Cc1ccccc1` [Example 68, Pyridine-2-carboxylic acid [(R)-3-(benzoyl-methyl-amino)-4-phenyl-butyl]-amide]: the pKd in experiment [1] was 5.45; in experiment [2], 5.63; in experiment [3] it was below 5.00; in experiment [4], 5.12.
With `CN(C(=O)c1ccccc1)[C@H](CCNC(=O)c1ccccn1)Cc1ccc(Cl)cc1` [Example 70, Pyridine-2-carboxylic acid [(S)-3-(benzoyl-methyl-amino)-4-(4-chloro-phenyl)-butyl]-amide], the inhibition at 10 µM in experiment [1] worked out at 0%; in experiment [2], 29%. Besides, the pKd in experiment [3] was below 5.00; in experiment [4] it was 5.08.
As to `CN(C(=O)c1ccc2c(c1)OCCO2)[C@H](CCNC(=O)c1ccccn1)Cc1ccccc1` [Example 71, Pyridine-2-carboxylic acid {(S)-3-[(2,3-dihydro-benzo[1,4]dioxine-6-carbonyl)-methyl-amino]-4-phenyl-butyl}-amide], the results for the pKd in experiment [1], in experiment [3] and in experiment [4] were 5.71, 5.79 and 5.02, respectively. Further, the inhibition at 10 µM in experiment [2] was 28%.
With `CN(C(=O)c1ccc(C(F)(F)F)cc1)[C@H](CCNC(=O)c1ccccn1)Cc1ccccc1` [Example 73, Pyridine-2-carboxylic acid {(S)-3-[methyl-(4-trifluoromethyl-benzoyl)-amino]-4-phenyl-butyl}-amide], the negative-log Kd (pKd) in experiment [1] was 5.72; in experiment [2] it was 5.88; in experiment [3], below 5.00; in experiment [4], below 5.00.
Take `CN(C(=O)c1cc(C(F)(F)F)cc(C(F)(F)F)c1)[C@@H](CCNC(=O)c1ccccn1)Cc1ccccc1` [Example 74, Pyridine-2-carboxylic acid {(R)-3-[(3,5-bis-trifluoromethyl-benzoyl)-methyl-amino]-4-phenyl-butyl}-amide]: the pKd was 5.49 in experiment [1], 5.79 in experiment [2], below 5.00 in experiment [3] and below 5.00 in experiment [4].
Take `CN(C(=O)c1ccc2c(c1)OCO2)[C@H](CCNC(=O)c1cc2ccccc2n1C)Cc1ccccc1` [Example 75, 1-Methyl-1H-indole-2-carboxylic acid {(S)-3-[(benzo[1,3]dioxole-5-carbonyl)-methyl-amino]-4-phenyl-butyl}-amide]: the negative-log Kd (pKd) in experiment [1] is 6.57; in experiment [2], 7.51; in experiment [3] it was 6.15; in experiment [4], 6.33.
For the compound `CN(C(=O)c1ccc2c(c1)OCO2)[C@H](CCNC(=O)c1cccn1C)Cc1ccccc1` [Example 76], the pKd is 6.42 in experiment [1], 9.00 in experiment [2], 7.03 in experiment [3] and 8.40 in experiment [4].
On to `CN(C(=O)c1ccc(C(F)(F)F)c(C(F)(F)F)c1)[C@H](CCNC(=O)c1ccccn1)Cc1ccccc1` [Example 77, Pyridine-2-carboxylic acid {(8)-3-[(3,4-bis-trifluoromethyl-benzoyl)-methyl-amino]-4-phenyl-butyl}-amide], for which the inhibition at 10 µM in experiment [1] came out at 25%. For the same compound, the pKd is 6.24 in experiment [2], 5.07 in experiment [3] and 5.43 in experiment [4].
Regarding `CN(C(=O)c1ccc2c(c1)OCO2)[C@H](CCNC(=O)c1nccn1C)Cc1ccccc1` [Example 78, 1-Methyl-1H-imidazole-2-carboxylic acid {(S)-3-[(benzo[1,3]dioxole-5-carbonyl)-methyl-amino]-4-phenyl-butyl}-amide], the pKd in experiment [1] is 5.83; in experiment [2], 7.55; in experiment [3], 6.18; in experiment [4] it was 7.62.
On the same counts, the results for `COc1cccc(C(=O)N(C)[C@H](CCNC(=O)c2nc3ccccc3n2C)Cc2ccccc2)c1` [Example 79, 1-Methyl-1H-benzoimidazole-2-carboxylic acid {(S)-3-[(3-methoxy-benzoyl)-methyl-amino]-4-phenyl-butyl}-amide] are 6.65, 7.92, 7.14 and 7.52.
For the compound `COc1ccc(C(=O)N(C)[C@H](CCNC(=O)c2nc3ccccc3n2C)Cc2ccccc2)cc1OC` [Example 80, 1-Methyl-1H-benzoimidazole-2-carboxylic acid {(S)-3-[(3,4-dimethoxy-benzoyl)-methyl-amino]-4-phenyl-butyl}-amide], the pKd in experiment [1] is 6.27; in experiment [2] it was 7.01; in experiment [3], 7.23; in experiment [4], 7.01.
For the compound `CN(C(=O)c1ccc2[nH]ccc2c1)[C@H](CCNC(=O)c1nc2ccccc2n1C)Cc1ccccc1` [Example 81, 1-Methyl-1H-benzoimidazole-2-carboxylic acid {(S)-3-[(1H-indole-5-carbonyl)-methyl-amino]-4-phenyl-butyl}-amide], the pKd in experiment [1] is 7.92; in experiment [2], 7.89; in experiment [3], 8.22; in experiment [4], 7.64.
In the case of `Cc1nc2sccn2c1C(=O)NCC[C@H](Cc1ccccc1)N(C)C(=O)c1ccc2c(c1)OCO2` [Example 82, 6-Methyl-imidazo[2,1-b]thiazole-5-carboxylic acid {(S)-3-[(benzo[1,3]dioxole-5-carbonyl)-methyl-amino]-4-phenyl-butyl}-amide], the pKd in experiment [1] was 6.02; in experiment [2], 8.70; in experiment [3], 6.79; in experiment [4], 7.92.
`Cc1nc(C(=O)NCC[C@H](Cc2ccccc2)N(C)C(=O)c2ccc3c(c2)OCO3)c(-c2ccccc2F)s1` [Example 83, 5-(2-Fluoro-phenyl)-2-methyl-thiazole-4-carboxylic acid {(S)-3-[(benzo[1,3]dioxole-5-carbonyl)-methyl-amino]-4-phenyl-butyl}-amide]: the negative logarithm of the Kd (pKd) is 7.38 in experiment [1], 8.52 in experiment [2], 7.27 in experiment [3] and 7.68 in experiment [4].
On the same counts, the results for `CN(C(=O)c1ccc2c(ccn2C)c1)[C@H](CCNC(=O)c1ccccn1)Cc1ccccc1` [Example 84, 1-Methyl-1H-indole-5-carboxylic acid {(S)-1-benzyl-3-[(pyridine-2-carbonyl)-amino]-propyl}-methyl-amide] are 7.30, 6.09, 7.52 and 5.88.
